We go through 13 molecules from patent publication US20230279024A1, “TRIAZINE COMPOUND AND COMPOSITION AND USE THEREOF” (BEIJING FINDCURE BIOSCIENCES, LTD., priority 2020, published 2023).

In one series the test system is CYP3A4/5. The experiment in a line: Inhibition of human liver microsomes CYP450, 3A4/5. The format is in vitro ADME. The settings on record: compounds 10 μM (positive control: concentration not given). Background: Liver microsomes are a subcellular fraction often used to study metabolism.
For a further series, the target named is AXL (h) kinase (Homo sapiens (Human), UniProt P30530). The series is described as follows: AXL (h) kinase activity test (EZ Reader mobility shift, FLPeptide30). The format is biochemical. The settings on record: ATP 100 μM, AXL 1 nM. How it is done: The effect of the disclosed compounds as protein kinase inhibitors can be evaluated by the following experiments. The AXL (h) kinase activity of the compounds of the invention is tested by the following methods:
Reagents used in the experiment were AXL (Carna Bioscience, Cat No.: 08-107) and FLPeptide30 (PerkinElmer, Cat No.: 760430). The instruments involved were thermotank (Thermo Scientific), oscillator (QILINBEIER), EZ Reader (PerkinElmer, Cat No.: 122919), Non-contact stage pipetting system (Labcyte Inc., Cat No.: Echo 550), and non-contact nanoliter pipetting system (TECAN, Cat No.: EVO200).
Compound dilution: 1) Dissolve the compound in DMSO to the appropriate concentration; 2) Using TECAN EVO200 to dilute 10 concentrations in 384 microplates by three times gradient, the highest concentration is 1 mM; Echo550 was used to transfer 20 nL solution from the dilution plate to the test plate.
2) Add 15 μL solution 1 to each well of the test plate and incubate at room temperature for 30 minutes.
4) Add 5 μL solution 2 to start the reaction, and the final volume of each well is 20 μL.
5) Incubated at 25° C. for 90 min, and then added 75 μL stop solution (containing 0.5 M EDTA) to terminate the reaction.
6) The sample of each well was analyzed using EZ reader.
1) Based on the measured conversion rate (CR), the Remaining Activity (%) of the kinase was calculated according to the following function:
2) XLFit (Equation 201) software was used to fit IC50.
The above methods can be used to obtain the inhibitory IC50 and/or inhibitory constant Ki.

Series [1] has as its target T1, CYP3A4 (Homo sapiens (Human), UniProt P08684). The settings on record: hepatocytes, 2 days, 10 μM. The protocol: (§1) Cryopreservation of human primary hepatocytes was resuscitated in medium after take out from liquid nitrogen. […] Plates were incubated at 37° C. and 5% CO2 for 4-6 hours to confirm the formation of monolayer cells attached to the wall. Then the adherent culture medium was changed into hepatocyte culture medium and the culture was continued overnight.
After the test compound and positive control inducer were co-incubated with cells, the medium was removed and mercaptoethanol was added for cell lysis. Total RNA in cells was extracted with RNA extraction kit, and then transcribed into cDNA with cDNA reverse transcription kit. The 10 μL cDNA template was taken and analyzed on the fluorescence quantitative PCR instrument to obtain the Ct value.
The gene expression data were corrected by internal reference 18S, and the relative expression differences were determined by the method of ΔΔCt commonly used in fluorescence quantitative PCR.
The ΔCt, ΔΔCt and relative expression difference values of the target genes were calculated according to the following formula:
ΔCt=Ct value of target gene−Ct value of internal reference 18S
ΔΔCt=ΔCt of experimental group or positive control group−ΔCt of blank control group
Relative expression difference (fold of induction)=2−ΔΔ^Ct

The subject of another series is Ba/F3 AXL cells. The series is described as follows: Cell activity test: growth inhibition of Ba/F3 AXL cell line (CTG, 72 h). Type of series: cell-based. Particulars: Mus musculus, BaF3. How it is done:
This experiment was conducted by detecting the inhibitory effect of compounds on the growth of Ba/F3 AXL cell line and Ba/F3 parental cell line. Cells in logarithmic growth stage were harvested and counted by platelet counter. Trypan blue rejection method was used to detect cell viability to ensure that the cell viability was above 90%. Adjust cell concentration; 90 μL cell suspension was added to 96-well plates, respectively; Cells in 96-well plates were cultured overnight at 37° C., 5% CO2 and 95% humidity. A 10-fold drug solution was prepared, with the highest concentration of 10 μM, and a total of 9 concentrations were diluted at 3.16 times the ratio. 10 μL drug solution was added to each well of the 96-well plate inoculated with cells, and three wells were set for each drug concentration; 96-well plates were incubated at 37° C., 5% CO2 and 95% humidity for 72 h, and CTG analysis was performed. Thaw the CTG reagent and balance the cell plates to room temperature for 30 minutes. Add the same volume of CTG solution to each well and vibrate on a fixed-rail shaker for 5 minutes to crack the cells. Place the cell plates at room temperature for 20 minutes to stabilize the cold light signal and read the cold light value. The GraphPad Prism 5.0 software was used to analyze the data, and the nonlinear S-curve regression was used to fit the data to obtain the dose-effect curve, and the IC50 value was calculated accordingly. Cell survival rate (%)=(Lum drug to be tested −Lum culture medium control)/(Lum cell control−Lum culture medium control)×100%.

The target in series [2] is T1, CYP3A4. Particulars: hepatocytes, 2 days, 10 μM. How it is done:
as §1
After the test compounds and positive control inducers were co-incubated with cells, the incubation medium was removed. […] After the samples were extracted and processed, the generation of metabolites and the kinase activities of CYP1A2, 2B6 and 3A4 was quantitatively detected by LC-MS/MS, respectively.
The induction of test substance on each subenzyme was determined by detecting the generation rate of metabolites of CYP450 subenzyme substrates. The relative activity of each subenzyme was expressed as a percentage of the relative blank control, and the data were calculated according to the following formula:
Fold of induction=sample subenzyme activity/blank subenzyme activity
Relative positive control activity (PC %)=(Fold of induction of sample group—Fold of induction of blank group)/(Fold of induction of positive control group—Fold of induction of blank group)×100
The source holds these as a separate data set.

Sequence of AXL (h) kinase (P30530 473-894): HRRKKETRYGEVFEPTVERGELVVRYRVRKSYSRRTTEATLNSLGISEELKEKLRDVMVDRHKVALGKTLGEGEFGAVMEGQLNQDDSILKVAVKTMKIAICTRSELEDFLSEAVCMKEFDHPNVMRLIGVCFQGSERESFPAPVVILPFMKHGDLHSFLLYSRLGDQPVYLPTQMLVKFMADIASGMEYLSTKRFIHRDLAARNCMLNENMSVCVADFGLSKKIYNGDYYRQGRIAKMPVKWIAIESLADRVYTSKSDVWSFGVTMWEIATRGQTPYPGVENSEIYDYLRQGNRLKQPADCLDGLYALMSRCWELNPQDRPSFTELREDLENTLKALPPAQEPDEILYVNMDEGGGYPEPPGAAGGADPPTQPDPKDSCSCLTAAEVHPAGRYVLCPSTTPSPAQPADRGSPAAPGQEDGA

For `CC(C)C(=O)N1CCC(c2cc(-c3ccc(NC(=O)c4c5n(n(-c6ccccc6)c4=O)CCOC5)cc3)c3c(N)ncnn23)CC1` [example 3, N-(4-(4-amino-7-(1-isobutyrylpiperidin-4-yl)pyrrolo[2,1-f][1,2,4]triazin-5-yl)phenyl)-2-oxo-1-phenyl-2,4,6,7-tetrahydro-1H-pyrazolo[5,1-c][1,4]oxazine-3-carboxamide], in the series on CYP3A4/5, the “Inhibitory rate (%) 3A4/5” value is listed as “No inhibition”. In addition, the IC50 was 5 to 50 nM at AXL (h) kinase and under 5 nM in the series on Ba/F3 AXL cells. The “Gene expression CYP3A4 Fold of induction” value at CYP3A4 [1] is given as 4.40. Moreover, on CYP3A4 [2], the “Enzymatic activity CYP3A4 Fold of induction” value (“Enzymatic activity CYP3A4 Fold” for short) was determined as 0.801.
On to `Nc1ncnn2c1c(-c1ccc(NC(=O)c3c4n(n(-c5ccccc5)c3=O)CCOC4)cc1)cc2[C@H]1CC[C@H](O)CC1` [example 7, N-(4-(4-amino-7-((1r,4r)-4-hydroxycyclohexyl)pyrrolo[2,1-f][1,2,4]triazin-5-yl)phenyl)-2-oxo-1-phenyl-2,4,6,7-tetrahydro-1H-pyrazolo[5,1-c][1,4]oxazine-3-carboxamide], for which the “Inhibitory rate (%) 3A4/5” value in the series on CYP3A4/5 is “No inhibition”. Also, at AXL (h) kinase, the IC50 was under 5 nM.
Take `Nc1ncnn2c(C3CCN(C(=O)C4CC4)CC3)cc(-c3ccc(NC(=O)c4c5n(n(-c6ccccn6)c4=O)CCCC5)cc3F)c12` [example 10, N-(4-(4-amino-7-(1-(cyclopropanecarbonyl)piperidin-4-yl)pyrrolo[2,1-f][1,2,4]triazin-5-yl)-3-fluorophenyl)-2-oxo-1-(pyridin-2-yl)-1,2,4,5,6,7-hexahydropyrazolo[1,5-a]pyridine-3-carboxamide]: the “Inhibitory rate (%) 3A4/5” value in the series on CYP3A4/5 was “No inhibition”. For the same molecule, the “Gene expression CYP3A4 Fold of induction” value on CYP3A4 [1] was found to be 24.7. This molecule also displayed a half-maximal inhibitory concentration (IC50) in the series with Ba/F3 AXL cells of under 5 nM. Besides, the “Enzymatic activity CYP3A4 Fold” value at CYP3A4 [2] is 0.779.
In the case of `CC(C)C(=O)N1CCC(c2cc(-c3ccc(NC(=O)c4c5n(n(-c6ccccc6)c4=O)CCCC5)cc3)c3c(N)ncnn23)CC1` [example 19, N-(4-(4-amino-7-(1-isobutyrylpiperidin-4-yl)pyrrolo[2,1-f][1,2,4]triazin-5-yl)phenyl)-2-oxo-1-phenyl-1,2,4,5,6,7-hexahydropyrazolo[1,5-a]pyridine-3-carboxamide], the IC50 at AXL (h) kinase is 5 to 50 nM; in the series with Ba/F3 AXL cells, under 5 nM. The “Gene expression CYP3A4 Fold of induction” value at CYP3A4 [1] was found to be 284. Further, the “Enzymatic activity CYP3A4 Fold” value on CYP3A4 [2] was 1.5.
With `Nc1ncnn2c1c(-c1ccc(NC(=O)c3c4n(n(-c5ccccn5)c3=O)CCCC4)cc1)cc2[C@H]1CC[C@H](O)CC1` [example 20, N-(4-(4-amino-7-((1r,4r)-4-hydroxycyclohexyl)pyrrole[2,1-f][1,2,4]triazin-5-yl)phenyl)-2-oxo-1-(pyridin-2-yl)-1,2,4,5,6,7-hexahydropyrazol[1,5-a]pyridine-3-carboxamide], the “Inhibitory rate (%) 3A4/5” value with CYP3A4/5 is “No inhibition”. In the series on Ba/F3 AXL cells, this molecule gave an IC50 of 5 to 50 nM.
`CC(C)(F)C(=O)N1CCC(c2cc(-c3ccc(NC(=O)c4c5n(n(-c6ccccn6)c4=O)CCCC5)cc3)c3c(N)ncnn23)CC1` [example 25, N-(4-(4-amino-7-(1-(2-fluoro-2-methylpropanoyl)piperidin-4-yl)pyrrolo[2,1-f][1,2,4]triazin-5-yl)phenyl)-2-oxo-1-(pyridin-2-yl)-1,2,4,5,6,7-hexahydropyrazolo[1,5-a]pyridine-3-carboxamide]: the figures for the IC50 on AXL (h) kinase and with Ba/F3 AXL cells were 5 to 50 nM and under 5 nM, respectively.
On to `CC(C)(F)C(=O)N1CCC(c2cc(-c3ccc(NC(=O)c4c5n(n(-c6ccccn6)c4=O)CCCC5)cc3F)c3c(N)ncnn23)CC1` [example 26, N-(4-(4-amino-7-(1-(2-fluoro-2-methylpropanoyl)piperidin-4-yl)pyrrolo[2,1-f][1,2,4]triazin-5-yl)-3-fluorophenyl)-2-oxo-1-(pyridin-2-yl)-1,2,4,5,6,7-hexahydropyrazolo[1,5-a]pyridine-3-carboxamide], for which the IC50 is 5 to 50 nM on AXL (h) kinase and under 5 nM in the series on Ba/F3 AXL cells.
On to `CC(C)(F)C(=O)N1CCC(c2cc(-c3ccc(NC(=O)c4c5n(n(-c6ccccn6)c4=O)CCOC5)cc3F)c3c(N)ncnn23)CC1` [example 27, N-(4-(4-amino-7-(1-(2-fluoro-2-methylpropanoyl)piperidin-4-yl)pyrrolo[2,1-f][1,2,4]triazin-5-yl)-3-fluorophenyl)-2-oxo-1-(pyridin-2-yl)-2,4,6,7-tetrahydro-1H-pyrazolo[5,1-c][1,4]oxazine-3-carboxamide], for which the figures for the IC50 on AXL (h) kinase and in the series on Ba/F3 AXL cells were 50 to 100 nM and 5 to 50 nM, respectively.
With `CC(C)(O)C(=O)N1CCC(c2cc(-c3ccc(NC(=O)c4c5n(n(-c6ccccn6)c4=O)CCCC5)cc3F)c3c(N)ncnn23)CC1` [example 29, N-(4-(4-amino-7-(1-(2-hydroxy-2-methylpropanoyl)piperidin-4-yl)pyrrolo[2,1-f][1,2,4]triazin-5-yl)-3-fluorophenyl)-2-oxo-1-(pyridin-2-yl)-1,2,4,5,6,7-hexahydropyrazolo[1,5-a]pyridine-3-carboxamide], the IC50 was 5 to 50 nM on AXL (h) kinase and under 5 nM with Ba/F3 AXL cells. The “Gene expression CYP3A4 Fold of induction” value at CYP3A4 [1] came out at 6.37. Also, the “Enzymatic activity CYP3A4 Fold” value at CYP3A4 [2] is reported as 1.06.
As for `Nc1ncnn2c(C3CCN(C(=O)C4CC4)CC3)cc(-c3ccc(NC(=O)c4c5n(n(-c6ccccn6)c4=O)CCCC5)cc3)c12` [example 36, N-(4-(4-amino-7-(1-(cyclopropanecarbonyl)piperidin-4-yl)pyrrolo[2,1-f][1,2,4]triazin-5-yl)phenyl)-2-oxo-1-(pyridin-2-yl)-1,2,4,5,6,7-hexahydropyrazolo[1,5-a]pyridine-3-carboxamide], the “Inhibitory rate (%) 3A4/5” value in the series on CYP3A4/5 is reported as “No inhibition”. Further, the IC50 on AXL (h) kinase was 5 to 50 nM; in the series with Ba/F3 AXL cells, under 5 nM.
Take `CC(C)(C)C(=O)N1CCC(c2cc(-c3ccc(NC(=O)c4c5n(n(-c6ccccn6)c4=O)CCOC5)cc3F)c3c(N)ncnn23)CC1` [example 37]: the values for the IC50 at AXL (h) kinase and in the series on Ba/F3 AXL cells were 5 to 50 nM and under 5 nM, respectively.
For `Cn1cc(-n2c(=O)c(C(=O)Nc3ccc(-c4cc(C5CCN(C(=O)C6CC6)CC5)n5ncnc(N)c45)cc3)c3n2CCCC3)cn1` [example 47], the results for the IC50 at AXL (h) kinase and with Ba/F3 AXL cells were 5 to 50 nM and under 5 nM, respectively.
Turning to `Nc1ncnn2c(C3CCN(C(=O)C4CC4)CC3)cc(-c3ccc(NC(=O)c4c5n(n(-c6cccnc6)c4=O)CCCC5)cc3)c12` [example 49], the IC50 at AXL (h) kinase and with Ba/F3 AXL cells was 5 to 50 nM each time.

A word on the IC50: it is the midpoint of a concentration-inhibition curve.
